Consider eleven substances from patent US12653911B2, “Stimuli-responsive nanoparticles for biomedical applications” (The Brigham and Women's Hospital, Inc., priority 2016, dated 2026).

A short description of the series: Acid-base titration of the polymers (pKa). It is filed as physicochemical. On the procedure:
Meo-PEG-b-P(DPA-co-GMA-TEPA-C14) was dispersed in deionized water, and a concentrated HCl aqueous solution was added until complete dissolution of the copolymer (1 mg/mL). Subsequently, 1 M NaOH aqueous solution was added in 1-5 μL increments. After each addition, the solution was constantly stirred for 3 min, and the solution pH was measured using a pH meter.
Meo-PEG-b-P(DPA-co-GMA-Rn) was dispersed in deionized water, and a concentrated HCl aqueous solution was added until the copolymer was completely dissolved (1 mg/mL). Subsequently, 1 M NaOH aqueous solution was added in 1-5 μL increments. After each addition, the solution was constantly stirred for 3 min, and the solution pH was measured using a pH meter.
Subsequently, 1 M NaOH aqueous solution was added in 1-5 μL increments. After each addition, the solution was constantly stirred for 3 min, and the solution pH was measured using a pH meter.

Consider “Meo-PEG113-b-P(DPA80-co-GMA5) [PDPA80-GMA5]”, for which the pKa stood at 6.24. The substance Meo-PEG-b-P(DPA-co-GMA) [PDPA40-GMA5] registered a pKa of 6.34.

In turn, Meo-PEG-b-P(DPA-co-GMA) [PDPA50-GMA5] registered a pKa of 6.31. On the same count and under the same terms, the value for Meo-PEG-b-P(DPA-co-GMA) [PDPA60-GMA5] was 6.29; that for Meo-PEG-b-P(DPA-co-GMA) [PDPA70-GMA5] was 6.26; that for Meo-PEG-b-P(DPA-co-GMA) [PDPA100-GMA5] was 6.21. For the substance Meo-PEG-b-P(DPA-co-GMA-R10), the pKa amounted to 6.31. Substance “Meo-PEG-b-P(DPA-co-GMA-TEPA-C14) [PDPA40]” gave a pKa of polymer of 6.34.

Substance “Meo-PEG-b-P(DPA-co-GMA-TEPA-C14) [PDPA50]” showed a pKa of polymer of 6.31.

In turn, “Meo-PEG-b-P(DPA-co-GMA-TEPA-C14) [PDPA60]” gave a pKa of polymer of 6.29.

In turn, “Meo-PEG-b-P(DPA-co-GMA-TEPA-C14) [PDPA70]” yielded a pKa of polymer of 6.26.

In general, pKa refers to the negative logarithm of the acid dissociation constant. High values mean a group that holds its proton tightly, low ones a group that gives up its proton readily.
